Measurements as given in patent publication US20230104936A1, “TRPML MODULATORS” (Casma Therapeutics, Inc., priority 2019, published 2023).

System: TFEB
Experiment: TFEB nuclear translocation assay, HeLa wt cells
Assay type: cell-based
Conditions: Homo sapiens, HeLa, 2 h, 2 hrs compound treatment, Table 1 does not say HeLa wt or TRPML1 KO
Procedure, shortened: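 HeLa wt cells were treated with compound for 2 hrs at 37° C, then fixed in 4% PFA and immunostained for TFEB with an Alexa 488 secondary and Hoechst nuclear counterstain. Automated epifluorescence imaging at ×20 gave the ratio of nuclear TFEB intensity to a perinuclear ring region, from which AC50 was derived.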

CCOCCC1CCN(c2ccccc2NS(=O)(=O)c2ccc3c(c2)CC(C)(C)O3)CC1 [Compound A-631, N-{2-[4-(2-ethoxyethyl)piperidin-1-yl]phenyl}-2,2-dimethyl-2,3-dihydro-1-benzofuran-5-sulfonamide]
AC50: ≤ 2000 nM

CC1(C)Cc2cc(S(=O)(=O)Nc3ccccc3N3CCCC4(CCCOC4)C3)ccc2O1 (centres unmarked) [Compound A-632, 2,2-dimethyl-N-(2-{2-oxa-8-azaspiro[5.5]undecan-8-yl}phenyl)-2,3-dihydro-1-benzofuran-5-sulfonamide]
AC50: ≤ 2000 nM

COCC1(C)CCN(c2ccccc2NS(=O)(=O)c2cccc(C(C)(C)OC)c2)CC1 [Compound A-633, N-{2-[4-(methoxymethyl)-4-methylpiperidin-1-yl]phenyl}-3-(2-methoxypropan-2-yl)benzene-1-sulfonamide]
AC50: 2010 to 8000 nM

COC(C)(C)c1cccc(S(=O)(=O)Nc2ccccc2N2CCC3(CC2)COC(C)(C)C3)c1 [Compound A-634, N-(2-{3,3-dimethyl-2-oxa-8-azaspiro[4.5]decan-8-yl}phenyl)-3-(2-methoxypropan-2-yl)benzene-1-sulfonamide]
AC50: 2010 to 8000 nM

CC1(C)CC2(CCN(c3ccccc3NS(=O)(=O)c3ccc4c(c3)CC(C)(C)O4)CC2)CO1 [Compound A-635, N-(2-{3,3-dimethyl-2-oxa-8-azaspiro[4.5]decan-8-yl}phenyl)-2,2-dimethyl-2,3-dihydro-1-benzofuran-5-sulfonamide]
AC50: 2010 to 8000 nM

CC1(C)Cc2cc(S(=O)(=O)Nc3ccccc3N3CCC(C(C)(F)F)CC3)ccc2O1 [Compound A-636, N-{2-[4-(1,1-difluoroethyl)piperidin-1-yl]phenyl}-2,2-dimethyl-2,3-dihydro-1-benzofuran-5-sulfonamide]
AC50: ≤ 2000 nM

O=S(=O)(CCO)c1ccc(S(=O)(=O)Nc2ccccc2N2CCC(c3ccc(Cl)cc3F)CC2)cc1 [Compound A-637, N-{2-[4-(4-chloro-2-fluorophenyl)piperidin-1-yl]phenyl}-4-(2-hydroxyethanesulfonyl)benzene-1-sulfonamide]
AC50: ≥ 10000 nM

CC1(C)CC2(CCN(c3ccccc3NS(=O)(=O)c3ccc4c(c3)CC(C)(C)C4=O)CC2)CO1 [Compound A-638, N-(2-{3,3-dimethyl-2-oxa-8-azaspiro[4.5]decan-8-yl}phenyl)-2,2-dimethyl-1-oxo-2,3-dihydro-1H-indene-5-sulfonamide]
AC50: 2010 to 8000 nM

COCC1(C)CCN(c2ccccc2NS(=O)(=O)c2ccc3c(c2)CC(C)(C)C3=O)CC1 [Compound A-639, N-{2-[4-(methoxymethyl)-4-methylpiperidin-1-yl]phenyl}-2,2-dimethyl-1-oxo-2,3-dihydro-1H-indene-5-sulfonamide]
AC50: ≥ 10000 nM

CC1(C)Cc2cc(S(=O)(=O)Nc3ccccc3N3CCCC34CCCOC4)ccc2O1 (centres unmarked) [Compound A-640, 2,2-dimethyl-N-(2-{7-oxa-1-azaspiro[4.5]decan-1-yl}phenyl)-2,3-dihydro-1-benzofuran-5-sulfonamide]
AC50: 2010 to 8000 nM

COCC1(C)CCN(c2ccccc2NS(=O)(=O)c2ccc(C(=O)C(C)C)cc2)CC1 [Compound A-641, N-{2-[4-(methoxymethyl)-4-methylpiperidin-1-yl]phenyl}-4-(2-methylpropanoyl)benzene-1-sulfonamide]
AC50: 8010 to 9990 nM

COCC1(C)CCN(c2ccccc2NS(=O)(=O)Cc2ccc(C)c(C)c2)CC1 [Compound A-642, 1-(3,4-dimethylphenyl)-N-{2-[4-(methoxymethyl)-4-methylpiperidin-1-yl]phenyl}methanesulfonamide]
AC50: ≤ 2000 nM

COCC1(C)CCN(c2ccccc2NS(=O)(=O)c2cccc(C3CC3)c2)CC1 [Compound A-643, 3-cyclopropyl-N-{2-[4-(methoxymethyl)-4-methylpiperidin-1-yl]phenyl}benzene-1-sulfonamide]
AC50: ≤ 2000 nM

COCC1(C)CCN(c2ccccc2NS(=O)(=O)c2ccc3c(c2)CCC(C(F)F)O3)CC1 (centres unmarked) [Compound A-644, 2-(difluoromethyl)-N-{2-[4-(methoxymethyl)-4-methylpiperidin-1-yl]phenyl}-3,4-dihydro-2H-1-benzopyran-6-sulfonamide]
AC50: 2010 to 8000 nM

COCC1(C)CCN(c2ccccc2NS(=O)(=O)c2ccc3c(c2)COC3)CC1 [Compound A-645, N-{2-[4-(methoxymethyl)-4-methylpiperidin-1-yl]phenyl}-1,3-dihydro-2-benzofuran-5-sulfonamide]
AC50: 8010 to 9990 nM

COCC1(C)CCN(c2ccccc2NS(=O)(=O)Cc2ccc(C)c(F)c2)CC1 [Compound A-646, 1-(3-fluoro-4-methylphenyl)-N-{2-[4-(methoxymethyl)-4-methylpiperidin-1-yl]phenyl}methanesulfonamide]
AC50: 2010 to 8000 nM

COCC1(C)CCN(c2ccccc2NS(=O)(=O)Cc2ccc(C(F)F)cc2)CC1 [Compound A-647, 1-[4-(difluoromethyl)phenyl]-N-{2-[4-(methoxymethyl)-4-methylpiperidin-1-yl]phenyl}methanesulfonamide]
AC50: 8010 to 9990 nM

COCC1(C)CCN(c2ccccc2NS(=O)(=O)Cc2cc(C)ccc2F)CC1 [Compound A-648, 1-(2-fluoro-5-methylphenyl)-N-{2-[4-(methoxymethyl)-4-methylpiperidin-1-yl]phenyl}methanesulfonamide]
AC50: ≤ 2000 nM

COCC1(C)CCN(c2ccccc2NS(=O)(=O)C2(c3ccccc3)CC2)CC1 [Compound A-649, N-{2-[4-(methoxymethyl)-4-methylpiperidin-1-yl]phenyl}-1-phenylcyclopropane-1-sulfonamide]
AC50: 2010 to 8000 nM

COCC1(C)CCN(c2ccccc2NS(=O)(=O)c2ccc(C3CC3(F)F)cc2)CC1 (centres unmarked) [Compound A-650, 4-(2,2-difluorocyclopropyl)-N-{2-[4-(methoxymethyl)-4-methylpiperidin-1-yl]phenyl}benzene-1-sulfonamide]
AC50: ≤ 2000 nM

COCC1(C)CCN(c2ccccc2NS(=O)(=O)c2cccc(C3CC3(F)F)c2)CC1 (centres unmarked) [Compound A-651, 3-(2,2-difluorocyclopropyl)-N-{2-[4-(methoxymethyl)-4-methylpiperidin-1-yl]phenyl}benzene-1-sulfonamide]
AC50: ≤ 2000 nM

CN(C)S(=O)(=O)c1ccc(S(=O)(=O)Nc2cccc(Cl)c2N2CCCCC2)cc1 [Compound A-652, N4-[3-chloro-2-(piperidin-1-yl)phenyl]-N1,N1-dimethylbenzene-1,4-disulfonamide]
AC50: ≤ 2000 nM

CN(C)S(=O)(=O)c1ccc(S(=O)(=O)Nc2ccccc2N2CCC3(CC2)COC(C)(C)C3)c(F)c1 [Compound A-653, N4-(2-{3,3-dimethyl-2-oxa-8-azaspiro[4.5]decan-8-yl}phenyl)-3-fluoro-N1,N1-dimethylbenzene-1,4-disulfonamide]
AC50: 2010 to 8000 nM

CC1(C)Cc2cc(S(=O)(=O)Nc3ccccc3N3CCC4(CCOCC4)CC3)ccc2O1 [Compound A-654, 2,2-dimethyl-N-(2-{3-oxa-9-azaspiro[5.5]undecan-9-yl}phenyl)-2,3-dihydro-1-benzofuran-5-sulfonamide]
AC50: ≤ 2000 nM

COCC1(C)CCN(c2ccccc2NS(=O)(=O)c2ccc(C(C)(C)OC)cc2)CC1 [Compound A-655, N-{2-[4-(methoxymethyl)-4-methylpiperidin-1-yl]phenyl}-4-(2-methoxypropan-2-yl)benzene-1-sulfonamide]
AC50: 2010 to 8000 nM

COC(C)(C)c1ccc(S(=O)(=O)Nc2ccccc2N2CCC3(CC2)COC(C)(C)C3)cc1 [Compound A-656, N-(2-{3,3-dimethyl-2-oxa-8-azaspiro[4.5]decan-8-yl}phenyl)-4-(2-methoxypropan-2-yl)benzene-1-sulfonamide]
AC50: 2010 to 8000 nM

CC(C)C(=O)c1ccc(S(=O)(=O)Nc2ccccc2N2CCC3(CC2)COC(C)(C)C3)cc1 [Compound A-657, N-(2-{3,3-dimethyl-2-oxa-8-azaspiro[4.5]decan-8-yl}phenyl)-4-(2-methylpropanoyl)benzene-1-sulfonamide]
AC50: 8010 to 9990 nM

CC(C)c1ccc(S(=O)(=O)Nc2ccccc2N2CCC3(CC2)COC(C)(C)C3)cc1 [Compound A-658, N-(2-{3,3-dimethyl-2-oxa-8-azaspiro[4.5]decan-8-yl}phenyl)-4-(propan-2-yl)benzene-1-sulfonamide]
AC50: ≤ 2000 nM

COC1Cc2ccc(S(=O)(=O)Nc3ccccc3N3CCC4(CC3)COC(C)(C)C4)cc2C1 (centres unmarked) [Compound A-659, N-(2-{3,3-dimethyl-2-oxa-8-azaspiro[4.5]decan-8-yl]phenyl)-2-methoxy-2,3-dihydro-1H-indene-5-sulfonamide]
AC50: 2010 to 8000 nM

CC1(C)CC2(CCN(c3ccccc3NS(=O)(=O)c3ccc(S(C)(=O)=O)c(F)c3)CC2)CO1 [Compound A-660, N-(2-{3,3-dimethyl-2-oxa-8-azaspiro[4.5]decan-8-yl}phenyl)-3-fluoro-4-methanesulfonylbenzene-1-sulfonamide]
AC50: 8010 to 9990 nM

Cc1cc(S(=O)(=O)Nc2ccccc2N2CCC3(CC2)COC(C)(C)C3)ccc1F [Compound A-661, N-(2-{3,3-dimethyl-2-oxa-8-azaspiro[4.5]decan-8-yl}phenyl)-4-fluoro-3-methylbenzene-1-sulfonamide]
AC50: 2010 to 8000 nM

Cc1ccc(S(=O)(=O)Nc2ccccc2N2CCC3(CC2)COC(C)(C)C3)cc1 [Compound A-662, N-(2-{3,3-dimethyl-2-oxa-8-azaspiro[4.5]decan-8-yl}phenyl)-4-methylbenzene-1-sulfonamide]
AC50: ≤ 2000 nM

Cc1ccc(CS(=O)(=O)Nc2ccccc2N2CCC3(CC2)COC(C)(C)C3)cc1C [Compound A-663, N-(2-{3,3-dimethyl-2-oxa-8-azaspiro[4.5]decan-8-yl}phenyl)-1-(3,4-dimethylphenyl)methanesulfonamide]
AC50: ≤ 2000 nM

Cc1cccc(CS(=O)(=O)Nc2ccccc2N2CCC3(CC2)COC(C)(C)C3)c1 [Compound A-664, N-(2-{3,3-dimethyl-2-oxa-8-azaspiro[4.5]decan-8-yl}phenyl)-1-(3-methylphenyl)methanesulfonamide]
AC50: ≤ 2000 nM

Cc1cccc(S(=O)(=O)Nc2ccccc2N2CCC3(CC2)COC(C)(C)C3)c1 [Compound A-665, N-(2-{3,3-dimethyl-2-oxa-8-azaspiro[4.5]decan-8-yl}phenyl)-3-methylbenzene-1-sulfonamide]
AC50: 2010 to 8000 nM
